Structures can show the parent of a compound that is named as a salt. Where two headings read alike, the source gives them in different places.

Common to all, as to type: cell-based, human
Test [1] has as its system AsPC-1 cells (KRAS G12D mutation). The test is described as follows: 3D cell proliferation assay (CellTiter Glo-3D), AsPC-1. Particulars: medium with 2% FBS, read-out: AsPC-1 AP IC50. In a few lines: (§1)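 Cells seeded at 800 per well in medium with 2% FBS, treated next day with 3.16-fold dilution series (0.1% DMSO) for 5 days at 37°C. Viability by CellTiter-Glo 3D luminescence; inhibition normalised to DMSO and cell-free controls, IC50 by four-parameter fit.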
(In general: Cellular ATP, detected with luciferase, serves as a proxy for viable cell number.)

The subject of another test is NCI-H441 cells. Description: 3D cell proliferation assay (CellTiter Glo-3D), NCI-H441. Particulars: medium with 2% FBS, read-out: H441 AP IC50. The gist of the method:
as §1

The subject of test [2] is p-ERK in AsPC-1 cells (KRAS G12D mutation). The test is described as follows: Cell p-ERK assay (HTRF) in AsPC-1 cells. In a few lines: (§2)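 AsPC-1 (10000/well) or NCI-H441 (20000/well) cells were seeded in RPMI-1640 with 10% FBS, grown overnight, then exposed to 3.16-fold compound dilutions (0.1% DMSO) for 3 h at 37 °C. Lysates were read for phospho-ERK T202/Y204 by HTRF; IC50 came from four-parameter fits of inhibition versus DMSO and blank wells.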
A general note: TR-FRET usually uses a lanthanide donor and a delayed reading to cut background.

The subject of test [3] is p-ERK in NCI-H441 cells (KRAS G12V mutation). The test is described as follows: Cell p-ERK assay (HTRF) in NCI-H441 cells. In a few lines:
as §2

The mark [4] stands for this setting: Homo sapiens, ASPC1, 3D cell proliferation (CellTiter Glo-3D).
The mark [5] stands for this setting: Homo sapiens, NCI-H441, 3D cell proliferation (CellTiter Glo-3D).
[6] abbreviates: Homo sapiens, ASPC1, 3 h, AsPC-1 cells, 3 h compound incubation, HTRF p-ERK T202/Y204, read-out: AsPC-1 p-ERK IC50.
Where [7] appears, read: Homo sapiens, NCI-H441, 3 h, NCI-H441 cells, 3 h compound incubation, HTRF p-ERK T202/Y204, read-out: H441 p-ERK IC50.
[8] abbreviates: 3D cell proliferation (CellTiter Glo-3D).
Where [9] appears, read: AsPC-1 cells, 3 h compound incubation, HTRF p-ERK T202/Y204, read-out: AsPC-1 p-ERK IC50.
Where [10] appears, read: NCI-H441 cells, 3 h compound incubation, HTRF p-ERK T202/Y204, read-out: H441 p-ERK IC50.

For `CCn1c(-c2cc([C@@H]3CCN4CCOC[C@H]4C3)cnc2[C@H](C)OC)c2c3cc(ccc31)-c1csc(n1)C[C@H](NC(=O)[C@H]1[C@H](C)[C@@H]1C)C(=O)N1CCC[C@H](N1)C(=O)OCC1(CC1)C2` (single isomer, unassigned) [Compound Z80], the IC50 in test [1] (setting [4]) worked out at 19000 pM; in the test on NCI-H441 cells (setting [5]) it was 7270 pM; in test [2] (setting [6]), 25.3 nM; in test [3] (setting [7]), 11.7 nM.

For `CCn1c(-c2cc(C#CCN3CCN(C)S(=O)(=O)CC3)cnc2[C@H](C)OC)c2c3cc(ccc31)-c1csc(n1)C[C@H](NC(=O)[C@H]1[C@H](C)[C@@H]1C)C(=O)N1CCC[C@H](N1)C(=O)OCC(C)(C)C2` [Compound Z847, (1r,2R,3S)—N-((6^3S,4S,Z)—1′-ethyl-(2-((S)-1-methoxyethyl)-5-(3-(2-methyl-1,1-dioxido-1,2,5-thiadiazepan-5-yl)prop-1-yn-1-yl)pyridin-3-yl)-10,10-dimethyl-5,7-dioxo-6^1,6^2,6^3,6^4,6^5,6^6-hexahydro-1^1H-8-oxa-2(4,2)-thiazola-1(5,3)-indola-6(1,3)-pyridazinacycloundecaphane-4-yl)-2,3-dimethylcyclopropane-1-carboxamide], the IC50 in test [1] (setting [4]) stood at 130 pM; with NCI-H441 cells (setting [5]) it was 290 pM; in test [2] (setting [6]) it was 0.11 nM; in test [3] (setting [7]), 0.13 nM.

On to `CCn1c(-c2cc(C#CCN3CCC(O)(c4cccc[n+]4[O-])CC3)cnc2[C@H](C)OC)c2c3cc(ccc31)-c1csc(n1)C[C@H](NC(=O)[C@H]1[C@H](C)[C@@H]1C)C(=O)N1CCC[C@H](N1)C(=O)OCC(C)(C)C2` (atropisomer, axis not shown; (Ra)) [Compound Z1047, 2-(1-(3-(5-((6^3S,4S,Z)-4-((1r,2R,3S)-2,3-dimethylcyclopropane-1-carboxamido)-1^1-ethyl-10,10-dimethyl-5,7-dioxo-6^1,6^2,6^3,6^4,6^5,6^6-hexahydro-1^1H-8-oxa-2(4,2)-thiazola-1(5,3)-indola-6(1,3)-pyridazinacycloundecaphane-1^2-yl)-(Ra)-6-((S)-1-methoxyethyl)pyridin-3-yl)prop-2-yn-1-yl)-4-hydroxypiperidin-4-yl)pyridine-1-oxide formate], for which the half-maximal inhibitory concentration (IC50) in test [1] (setting [4]) is 370 pM; in the test with NCI-H441 cells (Homo sapiens, 3D cell proliferation (CellTiter Glo-3D)), 240 pM; in test [2] (Homo sapiens, ASPC1, 3 h, read-out: AsPC-1 p-ERK IC50(nM)), 0.24 nM; in test [3] (Homo sapiens, NCI-H441, 3 h, read-out: H441 p-ERK IC50(nM)), 0.22 nM.

On to `CCn1c(-c2cc(OCCN3CCS(=O)(=O)CC3)cnc2[C@H](C)OC)c2c3cc(ccc31)-c1csc(n1)C[C@H](NC(=O)C(C)C(C)C)C(=O)N1CCC[C@H](N1)C(=O)OCC(C)(C)C2` (stereo partly drawn) [Compound Z607, N-((6^3S,4S,Z)—(R4)-1^2(5-(2-(1,1-dioxidothiomorpholino)ethoxy)-2-((S)-1-methoxyethyl)pyridin-3-yl)-1^1-ethyl-10,10-dimethyl-5,7-dioxo-6^1,6^2,6^3,6^4,6^5,6^6-hexahydro-1^1H-8-oxa-2(4,2)-thiazola-1(5,3)-indola-6(1,3)-pyridazinacycloundecaphane-4-yl)-2,3-dimethylbutanamide], for which the 50% inhibitory concentration (IC50) in test [1] (setting [8]) amounted to 1120 pM; in the test on NCI-H441 cells (setting [8]), 360 pM; in test [2] (setting [9]), 0.54 nM; in test [3] (setting [10]), 0.45 nM.

Consider `CCn1c(-c2cc([C@H]3CCN4CCOC[C@@H]4C3)cnc2[C@H](C)OC)c2c3cc(ccc31)-c1csc(n1)C[C@H](NC(=O)[C@H]1[C@H](C)[C@@H]1C)C(=O)N1CCC[C@H](N1)C(=O)OCC1(CC1)C2` (single isomer, unassigned) [Compound Z79], for which the IC50 in test [1] (setting [4]) came to 19300 pM; in the test on NCI-H441 cells (setting [5]), 6590 pM; in test [2] (setting [6]) it was 24.1 nM; in test [3] (setting [7]) it was 9.7 nM.

On to `CCn1c(-c2cc(C#C[C@@H]3CCCN3C)cnc2[C@H](C)OC)c2c3cc(ccc31)-c1csc(n1)C[C@H](NC(=O)[C@H]1[C@H](C)[C@@H]1C)C(=O)N1CCC[C@H](N1)C(=O)OCC(C)(C)C2` (atropisomer, axis not shown; (Ra)) [Compound Z598, (1r,2R,3S)—N-((6^3S,4S,Z)—(Ra)-1^1-ethyl-12-(2-((S)-1-methoxyethyl)-5-(((S)-1-methylpyrrolidin-2-yl)ethynyl)pyridin-3-yl)-10,10-dimethyl-5,7-dioxo-6^1,6^2,6^3,6^4,6^5,6^6-hexahydro-1^1H-8-oxa-2(4,2)-thiazola-1(5,3)-indola-6(1,3)-pyridazinacycloundecaphane-4-yl)-2,3-dimethylcyclopropane-1-carboxamide], for which the IC50 in test [1] (setting [8]) came out at 620 pM; with NCI-H441 cells (setting [8]) it was 650 pM; in test [2] (setting [9]) it was 0.8 nM; in test [3] (setting [10]), 0.58 nM.

Take `CCn1c(-c2cc(C#CCN3CCC3)cnc2[C@H](C)OC)c2c3cc(ccc31)-c1csc(n1)C[C@H](NC(=O)[C@H]1[C@@H]3COC[C@@H]31)C(=O)N1CCC[C@H](N1)C(=O)OCC(C)(C)C2` (atropisomer, axis not shown; (Ra)) [Compound Z1031, (1R,5S,6r)-N-((6^3S,4S,Z)-1^2-(5-(3-(azetidin-1-yl)prop-1-yn-1-yl)-(Ra)-2-((S)-1-methoxyethyl)pyridin-3-yl)-1^1-ethyl-10,10-dimethyl-5,7-dioxo-6^1,6^2,6^3,6^4,6^5,6^6-hexahydro-1^1H-8-oxa-2(4,2)-thiazola-1(5,3)-indola-6(1,3)-pyridazinacycloundecaphane-4-yl)-3-oxabicyclo[3,1,0]hexane-6-carboxamide]: the concentration for half-maximal inhibition (IC50) in test [1] (setting [4]) came to 1470 pM; in the test on NCI-H441 cells (setting [5]), 910 pM; in test [2] (setting [6]), 0.74 nM; in test [3] (setting [7]) it was 0.67 nM.

For the compound `CCn1c(-c2cc(N3CCN(C)CC3)cnc2[C@H](C)OC)c2c3cc(ccc31)-c1csc(n1)C[C@H](Nc1nnc3ccc(C)cn13)C(=O)N1CCC[C@H](N1)C(=O)OCC(C)(C)C2` (atropisomer, axis not shown; (Ra)) [Compound Z434, (6^3S,4S,Z)-1^1-ethyl-(Ra)-1^2-(2-((S)-1-methoxyethyl)-5-(4-methylpiperazin-1-yl)pyridin-3-yl)-10,10-dimethyl-4-((6-methyl-[1,2,4]triazolo[4,3-a]pyridin-3-yl)amino)-6^1,6^2,6^3,6^4,6^5,6^6-hexahydro-1^1H-8-oxa-2(4,2)-thiazola-1(5,3)-indola-6(1,3)-pyridazinacycloundecaphane-5,7-dione], the 50% inhibitory concentration (IC50) is 104000 pM in test [1] (setting [4]), 18100 pM in the test on NCI-H441 cells (setting [5]), 69.4 nM in test [2] (setting [6]) and 17.5 nM in test [3] (setting [7]).

Consider `CCn1c(-c2cc(N3CCN(C)CC3)cnc2[C@H](C)OC)c2c3cc(ccc31)-c1csc(n1)C[C@H](NC(=O)C(C)(C)F)C(=O)N1CCC[C@H](N1)C(=O)OCC(C)(C)C2` (single isomer, unassigned) [Compound Z5], for which the 50% inhibitory concentration (IC50) in test [1] (setting [8]) was found to be 19500 pM; with NCI-H441 cells (setting [8]), 12300 pM; in test [2] (setting [9]) it was 2.81 nM; in test [3] (setting [10]) it was 4.24 nM.

As for `CCn1c(-c2cc(OCCN3CCS(=O)(=O)CC3)cnc2[C@H](C)OC)c2c3cc(ccc31)-c1csc(n1)C[C@H](NC(=O)[C@H]1C[C@@H]1C)C(=O)N1CCC[C@H](N1)C(=O)OCC(C)(C)C2` (atropisomer, axis not shown; (Ra)) [Compound Z605], the 50% inhibitory concentration (IC50) in test [1] (setting [8]) is 500 pM; in the test with NCI-H441 cells (setting [8]), 260 pM; in test [2] (setting [9]), 0.6 nM; in test [3] (setting [10]) it was 0.3 nM.

Consider `CCn1c(-c2cc(OCCN3CCC4(CC4)C3)cnc2[C@H](C)OC)c2c3cc(ccc31)-c1csc(n1)C[C@H](NC(=O)[C@H]1[C@H](C)[C@@H]1C)C(=O)N1CCC[C@H](N1)C(=O)OCC1(CC1)C2` [Compound Z415, (1r,2R,3S)—N-((3′S,4′S,Z)-2′-(5-(2-(5-azaspiro[2.4]heptan-5-yl)ethoxy)-2-((S)-1-methoxyethyl)pyridin-3-yl)-1′-ethyl-5′,7′-dioxaspiro[cyclopropane-1,10′-8-oxa-2(4,2)-thiazola-1(5,3)-indola-6(1,3)-pyridazinacycloundecaphan]-4′-yl)-2,3-dimethylcyclopropane-1-carboxamide], for which the half-inhibitory concentration (IC50) in test [1] (setting [4]) came out at 12600 pM; in the test with NCI-H441 cells (setting [5]), 7540 pM; in test [2] (setting [6]), 10.1 nM; in test [3] (setting [7]) it was 11.7 nM.

For the compound `CCn1c(-c2cc(C#CCN3CCN(C)CC3)cnc2[C@H](C)OC)c2c3cc(ccc31)-c1csc(n1)C[C@H](NC(=O)[C@H]1[C@H](C)[C@@H]1C)C(=O)N1CCC[C@H](N1)C(=O)OCC(C)(C)C2` (atropisomer, axis not shown; (Ra)) [Compound Z703], the IC50 in test [1] (setting [4]) came to 680 pM; in the test on NCI-H441 cells (setting [5]), 300 pM; in test [2] (setting [6]), 0.36 nM; in test [3] (setting [7]), 0.17 nM.

For orientation: IC50 means the concentration that gives 50% inhibition.

These data come from patent US20260234165A1, “MACROCYCLIC COMPOUNDS, PREPARATION METHOD THEREFOR, AND USE THEREOF” (GENFLEET THERAPEUTICS (SHANGHAI) INC., priority 2004, published 2026).
